Experimental data as given in patent US20080039438A1, “1B-Methylcarbapenem Derivative and Process for the Preparation Thereof” (Korea Institute of Science and Technology, priority 2004, published 2008).
In brackets after ≈: the same amount, converted by molar mass.

Tests used:
Assay type in all cases: cell-based
[1] = system: Methicillin-sensitive Staphylococcus aureus; experiment: MIC against clinically isolated aerobic Gram-positive strains; details: 33 strains
Staphylococcus coagulase = experiment: as above; details: Staphylococcus
Streptococcus pyogenes = experiment: as above; details: 15 strains
Streptococcus agalactiae = experiment: as above; details: 15 strains
Streptococcus pneumoniae = experiment: as above; details: 22 strains
Enterococcus faecalis = experiment: as above; details: 30 strains
Enterococcus faecium = experiment: as above; details: clinically isolated Enterococcus faecium, 29 strains
Moraxella catarrhalis = experiment: MIC against clinically isolated aerobic Gram-negative strains; details: 24 strains
Haemophilus influenzae = experiment: as above; details: 24 strains
Escherichia coli = experiment: as above; details: 30 strains
Citrobacter freundii = experiment: as above; details: 14 strains
Klebsiella pneumoniae = experiment: as above; details: 30 strains
Klebsiella oxytoca = experiment: as above; details: 15 strains
Enterobacter cloacae = experiment: as above; details: 29 strains
Enterobacter aerogenes = experiment: as above; details: 14 strains
Serratia marcescens = experiment: as above; details: 14 strains
Proteus mirabilis = experiment: as above; details: 15 strains
Proteus vulgaris = experiment: as above; details: 15 strains
Morganella morganii = experiment: as above; details: 15 strains
Providentia sp. = experiment: as above; details: 13 strains
Acinetobacter baumannii = experiment: as above; details: 30 strains
Pseudomonas aeruginosa = experiment: as above; details: 60 strains
Peptostreptococcus spp. = experiment: MIC against clinically isolated anaerobic Gram-positive strains; details: 27 strains
Clostridium perfringens = experiment: microbe, parasite or virus in culture
Clostridium difficile = experiment: MIC against clinically isolated anaerobic Gram-positive strains; details: 15 strains
Procedure: The in vitro antibacterial activities of the sodium 3-carboxylate compound of the present invention prepared in the above Example were measured against standard strains (Table 1), clinically isolated aerobic Gram-positive strains (Table 2), clinically isolated aerobic Gram-negative strains (Table 3), clinically isolated anaerobic Gram-positive strains (Table 4) and clinically isolated anaerobic Gram-negative strains (Table 5) using Gram-positive bacteria such as Streptococcus and Staphylococcus, Gram-negative bacteria such as Escherichia, Salmonella, Krebsiella and Enterobacter. Imipenem (IPM), meropenem (MPM) and ertapenem (EPM) were used as control groups.
The results are shown in Tables 1 to 5, and MIC50 and MIC90 represent the concentrations at which the test strain's growth was inhibited to the extents of 50% and 90%, respectively.

Bacteroides fragilis = experiment: MIC against clinically isolated anaerobic Gram-negative strains; details: 34 strains
[2] = system: Bacteroides thetaiotaomicron; experiment: as above
Bacteroides spp. = experiment: as above; details: 11 strains

Question: What does the source list for `C[C@@H](O)[C@H]1C(=O)N2C(C(=O)O)=C(S[C@@H]3CN[C@H](C(=O)Nc4cccc(C(=O)O)c4)C3)[C@H](C)[C@H]12` [EPM, ertapenem]?
Answer: MIC50 [1]: 0.25 µg/mL (≈ 0.526 µM); MIC90 [1]: 0.25 µg/mL (≈ 0.526 µM); MIC Range [1]: 0.25 to 0.5 µg/mL; MIC50 (Staphylococcus coagulase): 0.25 µg/mL (≈ 0.526 µM); MIC90 (Staphylococcus coagulase): 0.5 µg/mL (≈ 1.05 µM); MIC50 (Streptococcus pyogenes): 0.15 µg/mL (≈ 0.315 µM); MIC90 (Streptococcus pyogenes): 0.15 µg/mL (≈ 0.315 µM); MIC Range (Streptococcus pyogenes): 0.008 to 0.015 µg/mL; MIC50 (Streptococcus agalactiae): 0.06 µg/mL (≈ 0.126 µM); MIC90 (Streptococcus agalactiae): 0.06 µg/mL (≈ 0.126 µM); MIC Range (Streptococcus agalactiae): 0.03 to 0.06 µg/mL; MIC50 (Streptococcus pneumoniae): 0.5 µg/mL (≈ 1.05 µM); MIC90 (Streptococcus pneumoniae): 1 µg/mL (≈ 2.1 µM); MIC Range (Streptococcus pneumoniae): 0.008 to 1 µg/mL; MIC50 (Enterococcus faecalis): 16 µg/mL (≈ 33.6 µM); MIC90 (Enterococcus faecalis): 32 µg/mL (≈ 67.3 µM); MIC Range (Enterococcus faecalis): 4 to 64 µg/mL; MIC Range (Enterococcus faecium): 32 to 128 µg/mL; MIC50 (Enterococcus faecium; read-out: MIC50): 128 µg/mL (≈ 269 µM); MIC90 (Enterococcus faecium; read-out: MIC90): 128 µg/mL (≈ 269 µM); MIC50 (Moraxella catarrhalis): 0.015 µg/mL (≈ 0.0315 µM); MIC90 (Moraxella catarrhalis): 0.03 µg/mL (≈ 0.0631 µM); MIC Range (Moraxella catarrhalis): 0.008 to 0.12 µg/mL; MIC50 (Haemophilus influenzae): 0.12 µg/mL (≈ 0.252 µM); MIC90 (Haemophilus influenzae): 0.5 µg/mL (≈ 1.05 µM); MIC Range (Haemophilus influenzae): 0.12 to 1 µg/mL; MIC50 (Escherichia coli): 0.008 µg/mL (≈ 0.0168 µM); MIC90 (Escherichia coli): 0.12 µg/mL (≈ 0.252 µM); MIC Range (Escherichia coli): 0.008 to 4 µg/mL; MIC50 (Citrobacter freundii): 0.008 µg/mL (≈ 0.0168 µM); MIC90 (Citrobacter freundii): 0.25 µg/mL (≈ 0.526 µM); MIC Range (Citrobacter freundii): 0.008 to 0.5 µg/mL; MIC50 (Klebsiella pneumoniae): 0.03 µg/mL (≈ 0.0631 µM); MIC90 (Klebsiella pneumoniae): 0.5 µg/mL (≈ 1.05 µM); MIC Range (Klebsiella pneumoniae): 0.008 to 1 µg/mL; MIC50 (Klebsiella oxytoca): 0.008 µg/mL (≈ 0.0168 µM); MIC90 (Klebsiella oxytoca): 0.008 µg/mL (≈ 0.0168 µM); MIC Range (Klebsiella oxytoca): 0.008 to 0.25 µg/mL; MIC50 (Enterobacter cloacae): 0.12 µg/mL (≈ 0.252 µM); MIC90 (Enterobacter cloacae): 2 µg/mL (≈ 4.21 µM); MIC Range (Enterobacter cloacae): 0.015 to 2 µg/mL; MIC Range (Enterobacter aerogenes): 0.008 to 0.5 µg/mL; MIC50 (Enterobacter aerogenes; Klebsiella aerogenes): 0.06 µg/mL (≈ 0.126 µM); MIC90 (Enterobacter aerogenes; Klebsiella aerogenes): 0.5 µg/mL (≈ 1.05 µM); MIC50 (Serratia marcescens): 0.06 µg/mL (≈ 0.126 µM); MIC90 (Serratia marcescens): 16 µg/mL (≈ 33.6 µM); MIC Range (Serratia marcescens): 0.015 to 16 µg/mL; MIC50 (Proteus mirabilis): 0.008 µg/mL (≈ 0.0168 µM); MIC90 (Proteus mirabilis): 0.015 µg/mL (≈ 0.0315 µM); MIC Range (Proteus mirabilis): 0.008 to 0.015 µg/mL; MIC50 (Proteus vulgaris): 0.015 µg/mL (≈ 0.0315 µM); MIC90 (Proteus vulgaris): 0.015 µg/mL (≈ 0.0315 µM); MIC Range (Proteus vulgaris): 0.008 to 0.03 µg/mL; MIC50 (Morganella morganii): 0.008 µg/mL (≈ 0.0168 µM); MIC90 (Morganella morganii): 0.03 µg/mL (≈ 0.0631 µM); MIC Range (Morganella morganii): 0.008 to 0.03 µg/mL; MIC50 (Providentia sp.): 0.03 µg/mL (≈ 0.0631 µM); MIC90 (Providentia sp.): 16 µg/mL (≈ 33.6 µM); MIC Range (Providentia sp.): 0.008 to 16 µg/mL; MIC50 (Acinetobacter baumannii): 8 µg/mL (≈ 16.8 µM); MIC90 (Acinetobacter baumannii): 64 µg/mL (≈ 135 µM); MIC Range (Acinetobacter baumannii): 4 to 128 µg/mL; MIC50 (Pseudomonas aeruginosa): 32 µg/mL (≈ 67.3 µM); MIC90 (Pseudomonas aeruginosa): 128 µg/mL (≈ 269 µM); MIC Range (Pseudomonas aeruginosa): 1 to 128 µg/mL; MIC50 (Peptostreptococcus spp.): 0.12 µg/mL (≈ 0.252 µM); MIC90 (Peptostreptococcus spp.): 4 µg/mL (≈ 8.41 µM); MIC Range (Peptostreptococcus spp.): 0.06 to 4 µg/mL; MIC50 (Clostridium perfringens; Clostridium perfringens): 0.06 µg/mL (≈ 0.126 µM); MIC90 (Clostridium perfringens; Clostridium perfringens): 0.12 µg/mL (≈ 0.252 µM); MIC Range (Clostridium perfringens; clinically isolated anaerobic Clostridium perfringens, 13 strains): 0.06 to 0.12 µg/mL; MIC Range (Clostridium difficile): 4 to 8 µg/mL; MIC50 (Clostridium difficile; Clostridioides difficile): 4 µg/mL (≈ 8.41 µM); MIC90 (Clostridium difficile; Clostridioides difficile): 8 µg/mL (≈ 16.8 µM); MIC50 (Bacteroides fragilis): 0.25 µg/mL (≈ 0.526 µM); MIC90 (Bacteroides fragilis): 1 µg/mL (≈ 2.1 µM); MIC Range (Bacteroides fragilis): 0.12 to 4 µg/mL; MIC50 ([2]; Bacteroides thetaiotaomicron): 2 µg/mL (≈ 4.21 µM); MIC90 ([2]; Bacteroides thetaiotaomicron): 2 µg/mL (≈ 4.21 µM); MIC Range ([2]; clinically isolated anaerobic Bacteroides thetaiotaomicron, 15 strains): 0.25 to 8 µg/mL; MIC50 (Bacteroides spp.): 1 µg/mL (≈ 2.1 µM); MIC90 (Bacteroides spp.): 2 µg/mL (≈ 4.21 µM); MIC Range (Bacteroides spp.): 0.5 to 2 µg/mL
